According to patent US20230053540A1, “TREATMENT OF LIVER INJURY” (Massachusetts Institute of Technology, priority 2019, published 2023):

Test system: hepatocytes
Test: Seq-Well scRNA-Seq of hepatocytes after APAP overdose (signature scores, DEG vs untreated)
Format: in vivo, mouse
[1] = hepatocytes, cluster A48 (APAP) vs other treatment clusters
[2] = time point A6 vs untreated (UT)

## CC(=O)Nc1ccc(O)cc1 [APAP, acetaminophen]
[1]
  Rdh7 avg_logFC: 0.4684
  Reep6 avg_logFC: 0.6233
  Retsat avg_logFC: 0.7096
  Rgs16 avg_logFC: 0.4545
  Rpl38 avg_logFC: 0.3322
  Scand1 avg_logFC: 0.2707
  Serpina3m avg_logFC: 0.4034
  Serpina1d avg_logFC: 0.3053
  Serping1 avg_logFC: 0.5777
  Slc25a10 avg_logFC: 0.4313
  Slc25a20 avg_logFC: 0.3875
  Slc25a47 avg_logFC: 0.6175
  Slc27a5 avg_logFC: 0.4062
  Slc37a4 avg_logFC: 0.4461
  Slco1a4 avg_logFC: 0.5091
  Snord118 avg_logFC: 0.4771
  St3gal5 avg_logFC: 0.5549
  Sult1a1 avg_logFC: 0.4827
  Syvn1 avg_logFC: 0.3041
  Tcea3 avg_logFC: 0.3938
  Tef avg_logFC: 0.3394
  Tmbim4 avg_logFC: 0.3693
  Tmbim6 avg_logFC: 0.3713
  Ttc36 avg_logFC: 0.5638
  Ttpa avg_logFC: 0.4431
  Ttr avg_logFC: 0.4225
  Ugt2b5 avg_logFC: 0.4388
  Vnn3 avg_logFC: 0.3008
  Vtn avg_logFC: 0.5228
  Yipf3 avg_logFC: 0.2785
[2]
  avg_logFC 15-Sep: −0.4092
  avg_logFC 0610007P14Rik: −0.257
  avg_logFC 0610011F06Rik: −0.3037
  avg_logFC 1110008F13Rik: −0.3751
  avg_logFC 1110058L19Rik: −0.2581
  avg_logFC 1810022K09Rik: −0.3001
  avg_logFC 2010107E04Rik: −0.3182
  avg_logFC 3110043021Rik: 0.2694
  avg_logFC AA474408: 0.3471
  avg_logFC AW112010: −0.2981
  avg_logFC Aadat: −0.3186
  avg_logFC Abcc2: 0.2897
  avg_logFC Abcd3: −0.2718
  avg_logFC Abhd14b: −0.3937
  avg_logFC Acads: −0.3242
  avg_logFC Acbd5: −0.3952
  avg_logFC Acot13: −0.2886
  avg_logFC Actn4: 0.3124
  avg_logFC Adtrp: −0.3664
  avg_logFC Agpat2: −0.2982
  avg_logFC Ak2: −0.3451
  avg_logFC Akap11: 0.3464
  avg_logFC Akr1a1: −0.3269
  avg_logFC Akr1e1: −0.2582
  avg_logFC Amy1: −0.283
  avg_logFC Anapc13: −0.3642
  avg_logFC Ankrd11: 0.4156
  avg_logFC Anp32a: −0.317
  avg_logFC Anxa5: 0.3654
  avg_logFC Aox3: −0.3333
  avg_logFC Apc: 0.279
  avg_logFC Apcs: 0.2989
  avg_logFC Apom: −0.3024
  avg_logFC Aqp9: −0.3109
  avg_logFC Arl6ip1: −0.3649
  avg_logFC Atf4: 0.3411
  avg_logFC Atf6: 0.3778
  avg_logFC Atp1b1: 0.3702
  avg_logFC Atp2b1: 0.3321
  avg_logFC Atp5c1: −0.3476
  avg_logFC Atp5g3: −0.3002
  avg_logFC Atp5o: −0.3316
  avg_logFC BC005537: 0.3543
  avg_logFC Baat: −0.3086
  avg_logFC Baz1a: 0.2596
  avg_logFC Bckdha: −0.35
  avg_logFC Bet1: −0.2966
  avg_logFC Bhmt2: −0.3114
  avg_logFC Bnip3: −0.3362
  avg_logFC Bola3: −0.3689
  avg_logFC Bptf: 0.3245
  avg_logFC Bsg: −0.3152
  avg_logFC Bst2: −0.3156
  avg_logFC C8b: −0.3159
  avg_logFC C130074G19Rik: −0.3563
  avg_logFC Car5a: −0.3088
  avg_logFC Cars: 0.3158
  avg_logFC Cast: 0.4009
  avg_logFC Cebpb: −0.3617
  avg_logFC Cela1: −0.2723
  avg_logFC Cep85l: 0.2779
  avg_logFC Ces1f: −0.3126
  avg_logFC Cfhr1: −0.3253
  avg_logFC Chmp4b: 0.3002
  avg_logFC Chuk: 0.3724
  avg_logFC Cideb: −0.3684
  avg_logFC Cisd1: −0.3727
  avg_logFC Cldn2: −0.2511
  avg_logFC Cldn3: −0.3145
  avg_logFC Cnpy2: −0.3729
  avg_logFC Coq9: −0.3479
  avg_logFC Coro1c: 0.3067
  avg_logFC Cox6b1: −0.362
  avg_logFC Cox8a: −0.3993
  avg_logFC Cpb2: −0.3215
  avg_logFC Cpt1a: 0.2611
  avg_logFC Csde1: 0.3156
  avg_logFC Csrp3: −0.294
  avg_logFC Ctsc: 0.361
  avg_logFC Cxcl1: 0.3701
  avg_logFC Cybb: 0.3778
  avg_logFC Cyp4f14: −0.2959
  avg_logFC Cyp4f15: −0.2998
  avg_logFC Cyp27a1: −0.3735
  avg_logFC D10Jhu81e: −0.3957
  avg_logFC D17Wsu92e: 0.2525
  avg_logFC Ddah1: −0.312
  avg_logFC Ddx3y: 0.3395
  avg_logFC Derl2: −0.3317
  avg_logFC Dgat2: −0.3433
  avg_logFC Dhdh: −0.3348
  avg_logFC Dhrs4: −0.3321
  avg_logFC Dhx9: 0.3504
  avg_logFC Dnaja2: 0.3723
  avg_logFC Dnajc5: 0.3265
  avg_logFC Dnajc19: −0.316
  avg_logFC Dync1h1: 0.3796
  avg_logFC Dync1li1: 0.2624
  avg_logFC Ebp: −0.3553
  avg_logFC Echs1: −0.3316
  avg_logFC Edf1: −0.3817
  avg_logFC Eef1a1: 0.2826
  avg_logFC Eif3c: 0.302
  avg_logFC Eif4b: 0.3682
  avg_logFC Eprs: 0.3701
  avg_logFC Erbb2ip: 0.3332
  avg_logFC Esd: −0.2808
  avg_logFC Ethe1: −0.3334
  avg_logFC Etnk1: 0.316
  avg_logFC F10: −0.2719
  avg_logFC Fah: −0.2593
  avg_logFC Fam25c: −0.2977
  avg_logFC Fam214a: −0.2658
  avg_logFC Fbxo21: −0.2631
  avg_logFC Fcna: 0.3774
  avg_logFC Fdps: −0.2663
  avg_logFC Fkbp4: −0.3534
  avg_logFC Fus: 0.3393
  avg_logFC Gadd45g: −0.3554
  avg_logFC Gadd45gip1: −0.3041
  avg_logFC Gcdh: −0.3003
  avg_logFC Ghr: −0.3648
  avg_logFC Gjb1: −0.3166
  avg_logFC Glyctk: −0.2977
  avg_logFC Gm2788: −0.2831
  avg_logFC Gm4951: −0.3221
  avg_logFC Gm10800: 0.5626
  avg_logFC Gm24245: 0.5465
  avg_logFC Grhpr: −0.3531
  avg_logFC Gsr: 0.4128
  avg_logFC Gstm4: −0.3809
  avg_logFC Gyk: 0.3684
  avg_logFC Hibch: −0.3271
  avg_logFC Hipk3: 0.3394
  avg_logFC Hist1h1c: −0.3009
  avg_logFC Hmgcs1: −0.3491
  avg_logFC Hsd17b10: −0.3772
  avg_logFC Hsp90b1: −0.2615
  avg_logFC Hspa5: 0.2682
  avg_logFC Huwe1: 0.3879
  avg_logFC Ifrd1: 0.4904
  avg_logFC Il6ra: 0.3044
  avg_logFC Ipo5: 0.2687
  avg_logFC Ipo7: 0.3246
  avg_logFC Ivns1abp: 0.3566
  avg_logFC Jhdm1d: 0.3041
  avg_logFC Kif21a: 0.4042
  avg_logFC Lap3: −0.3644
  avg_logFC Larp4b: 0.3421
  avg_logFC Lcp1: 0.484
  avg_logFC Lrrfip2: 0.3731
  avg_logFC Lsmd1: −0.3131
  avg_logFC Macf1: 0.4042
  avg_logFC Mak16: 0.3171
  avg_logFC Map3k5: 0.3347
  avg_logFC Mbl2: −0.3465
  avg_logFC Mcee: −0.3199
  avg_logFC Mdh1: −0.3077
  avg_logFC Mdm2: 0.3283
  avg_logFC Metap2: 0.3686
  avg_logFC Mettl7a1: −0.3221
  avg_logFC Mien1: −0.3704
  avg_logFC Mki67ip: 0.3184
  avg_logFC Mocs2: −0.3467
  avg_logFC Mpc1: −0.2802
  avg_logFC Mrc1: 0.3404
  avg_logFC Mrp133: −0.2654
  avg_logFC Mrpl11: −0.2685
  avg_logFC Mrpl12: −0.3082
  avg_logFC Mrpl15: −0.2912
  avg_logFC Mrpl34: −0.2838
  avg_logFC Mrpl41: −0.2674
